From ChEMBL document CHEMBL2413072, “Synthesis and in vitro anticancer studies of novel C-2 arylidene congeners of lantadenes” (2013)

Assays:
Format in all cases: functional
NCI-H322M = test: Growth inhibition of human NCI-H322M cells by sulforhodamine B assay
MOLT-4 [1] = test: Growth inhibition of human MOLT4 cells by sulforhodamine B assay
SK-MEL-5 [2] = test: Growth inhibition of human SK-MEL-5 cells assessed as cell growth at 10^-8 M by sulforhodamine B assay; details: read-out: Activity
U-251 = test: Growth inhibition of human U251 cells assessed as cell growth at 10^-8 M by sulforhodamine B assay; details: read-out: Activity
LOX IMVI = test: Growth inhibition of human LOXIMVI cells assessed as cell growth at 10^-8 M by sulforhodamine B assay; details: read-out: Activity
SW-620 = test: Growth inhibition of human SW620 cells assessed as cell growth at 10^-8 M by sulforhodamine B assay; details: read-out: Activity
HCT-15 [3] = test: Growth inhibition of human HCT15 cells assessed as cell growth at 10^-8 M by sulforhodamine B assay; details: read-out: Activity
HOP-92 [4] = test: Growth inhibition of human HOP92 cells assessed as cell growth at 10^-8 M by sulforhodamine B assay; details: read-out: Activity
UO-31 [5] = test: Growth inhibition of human UO31 cells by sulforhodamine B assay
SN12C = test: Growth inhibition of human SN12C cells by sulforhodamine B assay
CAKI-1 [6] = test: Growth inhibition of human CAKI-1 cells by sulforhodamine B assay
SK-MEL-5 [7] = test: Growth inhibition of human SK-MEL-5 cells by sulforhodamine B assay
SK-MEL-28 = test: Growth inhibition of human SK-MEL-28 cells by sulforhodamine B assay
Malme-3M [8] = test: Growth inhibition of human MALME-3M cells by sulforhodamine B assay
PC-3 = test: Growth inhibition of human PC3 cells assessed as cell growth at 10^-4 M by sulforhodamine B assay; details: read-out: Activity
UO-31 [9] = test: Growth inhibition of human UO31 cells assessed as cell growth at 10^-4 M by sulforhodamine B assay; details: read-out: Activity
ACHN = test: Growth inhibition of human ACHN cells assessed as cell growth at 10^-4 M by sulforhodamine B assay; details: read-out: Activity
Malme-3M [10] = test: Growth inhibition of human MALME-3M cells assessed as cell growth at 10^-4 M by sulforhodamine B assay; details: read-out: Activity
NCI-H460 [11] = test: Growth inhibition of human NCI-H460 cells assessed as cell growth at 10^-4 M by sulforhodamine B assay; details: read-out: Activity
NCI-H226 = test: Growth inhibition of human NCI-H226 cells assessed as cell growth at 10^-4 M by sulforhodamine B assay; details: read-out: Activity
HOP-62 [12] = test: Growth inhibition of human HOP62 cells assessed as cell growth at 10^-4 M by sulforhodamine B assay; details: read-out: Activity
DU-145 = test: Growth inhibition of human DU145 cells assessed as cell growth at 10^-6 M by sulforhodamine B assay; details: read-out: Activity
CAKI-1 [13] = test: Growth inhibition of human CAKI-1 cells assessed as cell growth at 10^-6 M by sulforhodamine B assay; details: read-out: Activity
786-0 = test: Growth inhibition of human 786-0 cells assessed as cell growth at 10^-6 M by sulforhodamine B assay; details: read-out: Activity
OVCAR-5 = test: Growth inhibition of human OVCAR5 cells assessed as cell growth at 10^-6 M by sulforhodamine B assay; details: read-out: Activity
Malme-3M [14] = test: Growth inhibition of human MALME-3M cells assessed as cell growth at 10^-6 M by sulforhodamine B assay; details: read-out: Activity
SF-295 = test: Growth inhibition of human SF295 cells assessed as cell growth at 10^-6 M by sulforhodamine B assay; details: read-out: Activity
NCI-H460 [15] = test: Growth inhibition of human NCI-H460 cells assessed as cell growth at 10^-6 M by sulforhodamine B assay; details: read-out: Activity
HOP-92 [16] = test: Growth inhibition of human HOP92 cells assessed as cell growth at 10^-6 M by sulforhodamine B assay; details: read-out: Activity
MOLT-4 [17] = test: Growth inhibition of human MOLT4 cells assessed as cell growth at 10^-6 M by sulforhodamine B assay; details: read-out: Activity
MCF7 [18] = test: Growth inhibition of human MCF7 cells assessed as cell growth at 10^-7 M by sulforhodamine B assay; details: read-out: Activity
SK-MEL-2 = test: Growth inhibition of human SK-MEL-2 cells assessed as cell growth at 10^-7 M by sulforhodamine B assay; details: read-out: Activity
SNB-19 = test: Growth inhibition of human SNB19 cells assessed as cell growth at 10^-7 M by sulforhodamine B assay; details: read-out: Activity
SF-268 = test: Growth inhibition of human SF268 cells assessed as cell growth at 10^-7 M by sulforhodamine B assay; details: read-out: Activity
HT-29 = test: Growth inhibition of human HT-29 cells assessed as cell growth at 10^-7 M by sulforhodamine B assay; details: read-out: Activity
HCT-15 [19] = test: Growth inhibition of human HCT15 cells assessed as cell growth at 10^-7 M by sulforhodamine B assay; details: read-out: Activity
[20] = Growth inhibition of human HCC2998 cells assessed as cell growth at 10^-7 M by sulforhodamine B assay; details: HCC 2998, read-out: Activity
HOP-62 [21] = test: Growth inhibition of human HOP62 cells assessed as cell growth at 10^-7 M by sulforhodamine B assay; details: read-out: Activity
MCF7 [22] = test: Growth inhibition of human MCF7 cells assessed as cell growth at 10^-8 M by sulforhodamine B assay; details: read-out: Activity
UO-31 [23] = test: Growth inhibition of human UO31 cells assessed as cell growth at 10^-8 M by sulforhodamine B assay; details: read-out: Activity
[24] = read-out: LC50 (the source's name)
[25] = read-out: pLC50 (the source's name) (converted)

C/C=C(/C)C(=O)O[C@@H]1CC(C)(C)C[C@H]2C3=CC[C@@H]4[C@@]5(C)CC[C@H](O)C(C)(C)[C@@H]5CC[C@@]4(C)[C@]3(C)CC[C@@]12C(=O)O [Reduced Lantadene A]
GI50 (NCI-H322M; read-out: GI50): 1.78 µM | LC50 (50% lethal concentration) (NCI-H322M; read-out: LC50): 6.74 µM | TGI (NCI-H322M; read-out: TGI): 3.46 µM | GI50 (NCI-H322M; read-out: pGI50 (converted)): 1.78 µM | LC50 (50% lethal concentration) (NCI-H322M; read-out: pLC50 (converted)): 6.76 µM | TGI (NCI-H322M; read-out: pTGI (converted)): 3.47 µM | GI50 (MOLT-4 [1]; read-out: GI50): 2.05 µM | CC50 (MOLT-4 [1]; [24]): > 100 µM | TGI (MOLT-4 [1]; read-out: TGI): 5.14 µM | GI50 (MOLT-4 [1]; read-out: pGI50 (converted)): 2.04 µM | CC50 (MOLT-4 [1]; [25]): > 100 µM | TGI (MOLT-4 [1]; read-out: pTGI (converted)): 5.13 µM | growth at 0.01 µM (SK-MEL-5 [2]): 95% | growth at 0.01 µM (U-251): 96% | growth at 0.01 µM (LOX IMVI): 97% | growth at 0.01 µM (SW-620): 99% | growth at 0.01 µM (HCT-15 [3]): 100% | growth at 0.01 µM (HOP-92 [4]): 91% | GI50 (UO-31 [5]; read-out: GI50): 1.64 µM | CC50 (UO-31 [5]; [24]): 5.91 µM | TGI (UO-31 [5]; read-out: TGI): 3.12 µM | GI50 (UO-31 [5]; read-out: pGI50 (converted)): 1.66 µM | CC50 (UO-31 [5]; [25]): 5.89 µM | TGI (UO-31 [5]; read-out: pTGI (converted)): 3.09 µM | GI50 (SN12C; read-out: GI50): 1.63 µM | CC50 (SN12C; [24]): 7.22 µM | TGI (SN12C; read-out: TGI): 3.43 µM | GI50 (SN12C; read-out: pGI50 (converted)): 1.62 µM | CC50 (SN12C; [25]): 7.24 µM | TGI (SN12C; read-out: pTGI (converted)): 3.47 µM | GI50 (CAKI-1 [6]; read-out: GI50): 2.48 µM | CC50 (CAKI-1 [6]; [24]): 56.3 µM | TGI (CAKI-1 [6]; read-out: TGI): 9.08 µM | GI50 (CAKI-1 [6]; read-out: pGI50 (converted)): 2.45 µM | CC50 (CAKI-1 [6]; [25]): 56.2 µM | TGI (CAKI-1 [6]; read-out: pTGI (converted)): 9.12 µM | GI50 (SK-MEL-5 [7]; read-out: GI50): 1.8 µM | CC50 (SK-MEL-5 [7]; [24]): 17.2 µM | TGI (SK-MEL-5 [7]; read-out: TGI): 4.39 µM | GI50 (SK-MEL-5 [7]; read-out: pGI50 (converted)): 1.78 µM | CC50 (SK-MEL-5 [7]; [25]): 17.4 µM | TGI (SK-MEL-5 [7]; read-out: pTGI (converted)): 4.37 µM | GI50 (SK-MEL-28; read-out: GI50): 1.9 µM | TGI (SK-MEL-28; read-out: TGI): 4.27 µM | GI50 (SK-MEL-28; read-out: pGI50 (converted)): 1.91 µM | TGI (SK-MEL-28; read-out: pTGI (converted)): 4.27 µM | GI50 (Malme-3M [8]; read-out: GI50): 1.83 µM | CC50 (Malme-3M [8]; [24]): 7.7 µM | TGI (Malme-3M [8]; read-out: TGI): 3.75 µM | GI50 (Malme-3M [8]; read-out: pGI50 (converted)): 1.82 µM | CC50 (Malme-3M [8]; [25]): 7.76 µM | TGI (Malme-3M [8]; read-out: pTGI (converted)): 3.72 µM | growth at 100 µM (PC-3): -73% | growth at 100 µM (UO-31 [9]): -66% | growth at 100 µM (ACHN): -69% | growth at 100 µM (Malme-3M [10]): -62% | growth at 100 µM (NCI-H460 [11]): -37% | growth at 100 µM (NCI-H226): -73% | growth at 100 µM (HOP-62 [12]): -37% | growth at 1 µM (DU-145): 109% | growth at 1 µM (CAKI-1 [13]): 85% | growth at 1 µM (786-0): 97% | growth at 1 µM (OVCAR-5): 113% | growth at 1 µM (Malme-3M [14]): 92% | growth at 1 µM (SF-295): 81% | growth at 1 µM (NCI-H460 [15]): 89% | growth at 1 µM (HOP-92 [16]): 73% | growth at 1 µM (MOLT-4 [17]): 89% | growth at 0.1 µM (MCF7 [18]): 96% | growth at 0.1 µM (SK-MEL-2): 106% | growth at 0.1 µM (SNB-19): 90% | growth at 0.1 µM (SF-268): 106% | growth at 0.1 µM (HT-29): 108% | growth at 0.1 µM (HCT-15 [19]): 101% | growth at 0.1 µM [20]: 104% | growth at 0.1 µM (HOP-62 [21]): 95% | growth at 0.01 µM (MCF7 [22]): 95% | growth at 0.01 µM (UO-31 [23]): 93%
